Data on 30 molecules can be found in ChEMBL document CHEMBL3301361, “Experimental in vitro DMPK and physicochemical data on a set of publicly disclosed compounds”.

≈ marks a conversion by molar mass, not a printed value.

Data set [1] is described as follows: physchem. The settings on record: octan-1-ol/water, pH 7.4, LogD7.4.
Data set [2] in a line: in vitro. The note with it: human, plasma, PPB.
Data set [3] is described as follows: in vitro. The settings on record: human.
Data set [4] can be described thus: in vitro. The settings on record: hepatocytes.
A short description of data set [5]: in vitro. The settings on record: SD, HW or BN, rat, plasma.
Data set [6] in a line: physchem. The settings on record: pH 7.4 buffer.

`CCOC(=O)c1cnc2c(N)cccc2c1O` had a logD in data set [1] of 0.9. In addition, in data set [2], the fraction unbound at 5 h was 0.201. In data set [3] (liver microsomes), this molecule came in with a microsomal CLint of 20.4 µL/min/mg. This molecule also registered a hepatocyte CLint in data set [4] above 150 µL/min/1e6 cells.

`CCOc1ccc(-n2c([C@@H](C)N(CC3CCN(C)CC3)C(=O)Cc3ccc(F)c(C(F)(F)F)c3)nc3ncccc3c2=O)cc1` displayed a log distribution coefficient (logD) in data set [1] of 1.4. The molecule also showed a fraction unbound at 5 h in data set [2] of 0.129. The same molecule yielded a microsomal CLint in data set [3] (liver microsomes) of 21.4 µL/min/mg. Also, the intrinsic metabolic clearance (hepatocyte CLint) in data set [4] came out at 19.9 µL/min/1e6 cells.

With `O=C(CSc1ccccc1)N1CCN(C(=O)c2ccco2)CC1`, in data set [1], the logD was found to be 1.6. The molecule also had a fraction unbound at 5 h in data set [2] of 0.266. The molecule further displayed a microsomal CLint in data set [3] (liver microsomes) of 12.3 µL/min/mg. This molecule also came in with a hepatocyte CLint in data set [4] of 64.6 µL/min/1e6 cells.

The molecule `O=S1(=O)CC(O)C(N2CCC(c3ccccc3)CC2)C1` (stereo unspecified) gave a logD in data set [1] of 1.4. Also, the unbound share (fraction unbound) at 5 h in data set [2] was 0.569. Moreover, the microsomal CLint in data set [3] (microsomes) stood at 5.25 µL/min/mg. Also, the hepatocyte CLint in data set [4] came out at 75.9 µL/min/1e6 cells.

`CC(=O)c1cc2ccc(O)cc2oc1=O`: the logD in data set [1] was 0.87. Besides, the free fraction (fraction unbound) at 5 h in data set [2] was 0.0149. This molecule registered an intrinsic metabolic clearance (microsomal CLint) in data set [3] (microsomes) of 28.2 µL/min/mg. In data set [4], the hepatocyte CLint was above 150 µL/min/1e6 cells.

In turn, `Cc1oc(-c2ccccc2)cc1C(=O)Nc1cccc(C(=O)O)c1` yielded a logD in data set [1] of 1.63. The same molecule showed a free fraction (fraction unbound) at 5 h in data set [2] of 0.002. Also, in data set [3] (liver microsomes), the microsomal CLint was determined as 4.17 µL/min/mg. The intrinsic metabolic clearance (hepatocyte CLint) in data set [4] was 66.1 µL/min/1e6 cells.

Consider `COc1ccc(NC(=O)CCc2c(C)nc3nc(C)nn3c2C)cc1`, for which the logD in data set [1] was determined as 1.4. In data set [2], the free fraction (fraction unbound) at 5 h is 0.176. The molecule also yielded an intrinsic metabolic clearance (microsomal CLint) in data set [3] (microsomes) of 3.98 µL/min/mg. In data set [4], this molecule came in with a hepatocyte CLint of 3.09 µL/min/1e6 cells.

Turning to `C[C@H](NC(=O)c1cccc2c1N(Cc1ccc(Cl)cc1)CC2)c1ccc(C(=O)O)cc1`, in data set [1], the logD turned out to be 1.47. For the same molecule, in data set [2], the fraction unbound at 5 h is 0.0133. The same molecule gave an intrinsic clearance (microsomal CLint) in data set [3] (liver microsomes) of 15.8 µL/min/mg. This molecule also displayed a hepatocyte CLint in data set [4] of 13.2 µL/min/1e6 cells.

Take `O=C(CN1CCOCC1)Nc1ccc(-c2cccc3c(=O)cc(N4CCOCC4)oc23)cc1-c1ccccc1`: the fraction unbound at 5 h in data set [5] was 0.0633. In data set [4], this molecule gave a hepatocyte CLint of 123 µL/min/1e6 cells.

The molecule `Cc1ccc(CO)cc1N(c1ccnc(Nc2cc(N3CCOCC3)cc(S(C)(=O)=O)c2)n1)C(C)C` registered a solubility (thermodynamic) in data set [6] of 1.3 µM (≈ 0.665 µg/mL). The fraction unbound at 5 h in data set [2] was 0.0409. For the same molecule, in data set [3] (liver microsomes), the intrinsic clearance (microsomal CLint) is above 150 µL/min/mg. The same molecule gave a hepatocyte CLint in data set [4] of 53.7 µL/min/1e6 cells.

With `Cc1ccc(C(NC(=O)c2ccccc2O)C(=O)Nc2c(C)cccc2C)s1` (stereo unspecified), the logD in data set [1] came to 4.05. Besides, the fraction unbound at 5 h in data set [5] was 0.0075. Further, in data set [4], the hepatocyte CLint worked out at 70 µL/min/1e6 cells.

Consider `Cc1cc(OCCCS(C)(=O)=O)cc(C)c1-c1cccc(COc2ccc3c(c2)OC[C@H]3CC(=O)O)c1`, for which, in data set [1], the logD was 2.3. The solubility (thermodynamic) in data set [6] is 51.3 µM (≈ 26.9 µg/mL). Besides, the free fraction (fraction unbound) at 5 h in data set [2] is 0.0036. This molecule returned a microsomal CLint in data set [3] (microsomes) of 5.5 µL/min/mg. Moreover, the hepatocyte CLint in data set [4] came to 10 µL/min/1e6 cells.

In data set [1], `COc1ccc2nc(C)cc(N3CC(CNC(=O)C4CC4)OC3=O)c2c1` (stereo unspecified) returned a log distribution coefficient (logD) of 1.55. Besides, the fraction unbound at 5 h in data set [2] was 0.324. The microsomal CLint in data set [3] (microsomes) amounted to 8.91 µL/min/mg. The same molecule registered a hepatocyte CLint in data set [4] of 19.5 µL/min/1e6 cells.

Molecule `C[C@@H](C(=O)NCCN1CCCC1)c1ccc(OS(=O)(=O)C(F)(F)F)cc1` had a logD in data set [1] of 1.64. The molecule further gave a fraction unbound at 5 h in data set [2] of 0.324. Further, the microsomal CLint in data set [3] (liver microsomes) is below 3 µL/min/mg. The same molecule came in with a hepatocyte CLint in data set [4] of 6 µL/min/1e6 cells.

The molecule `Cc1ccc(S(=O)(=O)Nc2c(C(=O)N[C@@H](C)C(C)(C)C)c(C)nn2C2CCN(CC(F)(F)F)CC2)cc1` gave a logD in data set [1] of 1.08. In data set [2], this molecule gave an unbound share (fraction unbound) at 5 h of 0.117. This molecule gave an intrinsic metabolic clearance (microsomal CLint) in data set [3] (microsomes) below 3 µL/min/mg. This molecule yielded an intrinsic clearance (hepatocyte CLint) in data set [4] below 3 µL/min/1e6 cells.

In the case of `COc1ccc2c(Oc3ccc(CC(=O)Nc4cn(C)nc4C)c(OC)c3)ccnc2c1`, the logD in data set [1] is 3.5. In data set [6], this molecule returned a thermodynamic solubility of 10.7 µM (≈ 4.63 µg/mL). In addition, the fraction unbound at 5 h in data set [2] is 0.0111. This molecule also came in with a microsomal CLint in data set [3] (liver microsomes) of 24.6 µL/min/mg. This molecule had a hepatocyte CLint in data set [4] of 23.4 µL/min/1e6 cells.

For the molecule `CC(C)(C)NS(=O)(=O)c1cncc(-c2ccc3nc(N)nn3c2)c1`, the logD in data set [1] was determined as 1.41. Also, in data set [6], the solubility (thermodynamic) worked out at 63.1 µM (≈ 21.9 µg/mL). Further, the fraction unbound at 5 h in data set [2] is 0.371. Moreover, the microsomal CLint in data set [3] (microsomes) was below 3 µL/min/mg. The molecule also had an intrinsic metabolic clearance (hepatocyte CLint) in data set [4] of 20 µL/min/1e6 cells.

Turning to `CCCNC(=O)CSc1ccc(S(=O)(=O)N2CCCC2)cn1`, in data set [1], the pH-dependent lipophilicity (logD) came to 1.55. For the same molecule, in data set [2], the fraction unbound at 5 h is 0.349. In addition, the intrinsic clearance (microsomal CLint) in data set [3] (microsomes) is 12.6 µL/min/mg. In data set [4], this molecule registered a hepatocyte CLint of 55 µL/min/1e6 cells.

In data set [1], `Nc1ncnc2c1ncn2[C@@H]1O[C@H](CSCCCNC(=O)NCc2ccccc2)[C@@H](O)[C@H]1O` showed a logD of 0.9. In data set [2], this molecule had a fraction unbound at 5 h of 0.154. In addition, the microsomal CLint in data set [3] (microsomes) worked out at 21.4 µL/min/mg. For the same molecule, the intrinsic metabolic clearance (hepatocyte CLint) in data set [4] came out at 14.4 µL/min/1e6 cells.

Take `Clc1ccc2ncc(-c3cccc(NC4CNC4)n3)n2c1`: the pH-dependent lipophilicity (logD) in data set [1] amounted to 1.19. For the same molecule, the fraction unbound at 5 h in data set [2] was 0.163. Also, in data set [3] (liver microsomes), the microsomal CLint is below 3 µL/min/mg. In data set [4], this molecule had a hepatocyte CLint of 19.1 µL/min/1e6 cells.

As for `O=C(Nc1cccc(Cl)c1)c1ccccn1`, the pH-dependent lipophilicity (logD) in data set [1] was 3.4. In addition, the free fraction (fraction unbound) at 5 h in data set [5] is 0.0488. For the same molecule, the intrinsic metabolic clearance (hepatocyte CLint) in data set [4] was above 150 µL/min/1e6 cells.

The molecule `COc1cc(NC(=O)c2ccccn2)ccc1Cl` had a fraction unbound at 5 h in data set [5] of 0.0447. In data set [4], this molecule displayed a hepatocyte CLint above 150 µL/min/1e6 cells.

As to `O=C(Nc1ccc(F)cc1)c1ccc(Cl)[n+]([O-])c1`, the pH-dependent lipophilicity (logD) in data set [1] was determined as 1.38. Besides, the thermodynamic solubility in data set [6] came out at 355 µM (≈ 94.6 µg/mL). Also, the unbound share (fraction unbound) at 5 h in data set [2] is 0.465. The microsomal CLint in data set [3] (microsomes) was below 3 µL/min/mg. Besides, the hepatocyte CLint in data set [4] is 149 µL/min/1e6 cells.

`CCc1cc2c(cc1N1CCC(N3CCOCC3)CC1)C(C)(C)c1[nH]c3cc(C#N)ccc3c1C2=O` [ALECTINIB] registered a fraction unbound at 5 h in data set [5] of 0.5. This molecule also had an intrinsic clearance (hepatocyte CLint) in data set [4] of 5.01 µL/min/1e6 cells.

`COCC1=C(C(=O)O)N2C(=O)[C@@H](NC(=O)/C(=N\OC)c3csc(N)n3)[C@H]2SC1` [CEFPODOXIME]: the unbound share (fraction unbound) at 5 h in data set [2] was 0.465; in data set [5] it was 0.454. The molecule also came in with a hepatocyte CLint in data set [4] below 3 µL/min/1e6 cells.

As to `COC(=O)[C@H](c1ccccc1Cl)N1CCc2sccc2C1` [CLOPIDOGREL], in data set [1], the pH-dependent lipophilicity (logD) came out at 3.69. In data set [2], this molecule gave a free fraction (fraction unbound) at 5 h of 0.0136. The same molecule displayed a microsomal CLint in data set [3] (microsomes) above 150 µL/min/mg. This molecule also registered a hepatocyte CLint in data set [4] of 137 µL/min/1e6 cells.

In the case of `CS(=O)(=O)c1ccc(-c2cnc(N)c(-c3ccc(C(F)(F)F)nc3)c2)cc1` [MMV-048], in data set [1], the logD was determined as 2.4. In data set [2], this molecule had a fraction unbound at 5 h of 0.194. Also, the intrinsic metabolic clearance (microsomal CLint) in data set [3] (liver microsomes) is 6.17 µL/min/mg. The molecule further registered an intrinsic clearance (hepatocyte CLint) in data set [4] of 4.79 µL/min/1e6 cells.

With `CCOc1ccc(NC(C)=O)cc1` [PHENACETIN], the log distribution coefficient (logD) in data set [1] was found to be 1.5. Also, the fraction unbound at 5 h in data set [2] is 0.651. This molecule also registered a microsomal CLint in data set [3] (liver microsomes) of 24.6 µL/min/mg. This molecule also gave an intrinsic metabolic clearance (hepatocyte CLint) in data set [4] of 26.9 µL/min/1e6 cells.

In data set [1], `CNCc1ccc(-c2[nH]c3cc(F)cc4c3c2CCNC4=O)cc1` [RUCAPARIB] had a log distribution coefficient (logD) of 1.17. Besides, the solubility (thermodynamic) in data set [6] came out at 851 µM (≈ 275 µg/mL). Besides, the unbound share (fraction unbound) at 5 h in data set [2] is 0.232. Moreover, the microsomal CLint in data set [3] (microsomes) is 5.5 µL/min/mg. In data set [4], the hepatocyte CLint was 12 µL/min/1e6 cells.

`NC(=O)c1ccc(N(C(N)=O)c2c(F)cccc2F)nc1-c1ccc(F)cc1F` [VX-702]: the log distribution coefficient (logD) in data set [1] came to 1.6. The same molecule showed a fraction unbound at 5 h in data set [2] of 0.392. The same molecule gave an intrinsic clearance (microsomal CLint) in data set [3] (liver microsomes) of 5.13 µL/min/mg. For the same molecule, the hepatocyte CLint in data set [4] was below 3 µL/min/1e6 cells.
